Measurements as given in patent US6586402B1, “LH-RH peptide analogues, their uses and pharmaceutical compositions containing them” (Laboratoire Theramex, priority 1997, dated 2003).
“Also recorded” adds a separate entry of the source. Square brackets hold non-standard residues; d marks the D form. Peptide text beside a SMILES is read from it. 1Nal = N[C@@H](Cc1cccc2ccccc12)C(=O)O; 2Nal = N[C@@H](Cc1ccc2ccccc2c1)C(=O)O; Bta = N[C@@H](Cc1csc2ccccc12)C(=O)O; tBuAla = CC(C)(C)C[C@H](N)C(=O)O; d3Pal = N[C@H](Cc1cccnc1)C(=O)O; d4Pal = N[C@H](Cc1ccncc1)C(=O)O; pGlu = O=C1CC[C@@H](C(=O)O)N1

What was measured:
[1] = biological target: LH-RH receptors (membrane fractions of pituitaries from female Sprague Dawley rats) (rat (female Sprague Dawley)) (UniProt P30969); experiment: competition with [125I]-buserelin, rat pituitary membranes; Ki by Cheng-Prusoff
LH-RH receptors = biological target: T1, LH-RH receptors (Rattus norvegicus, UniProt P30969); experiment: Stimulation of testosterone secretion in adult male rats after subcutaneous injection (agonist activity in vivo); parameters: exert an agonist activity upon the LH-RH receptors in vivo; from tissue; host or cells: whole animal, adult male Sprague-Dawley rats; species or system Sprague-Dawley rats; conditions: for agonistic potency in words: comment on Tables 2 and 3; for Total plasma testosterone: 10 ng/kg subcutaneous in PBS, blood two hours later, male Sprague-Dawley rats
T1 sequence (P30969 1-327): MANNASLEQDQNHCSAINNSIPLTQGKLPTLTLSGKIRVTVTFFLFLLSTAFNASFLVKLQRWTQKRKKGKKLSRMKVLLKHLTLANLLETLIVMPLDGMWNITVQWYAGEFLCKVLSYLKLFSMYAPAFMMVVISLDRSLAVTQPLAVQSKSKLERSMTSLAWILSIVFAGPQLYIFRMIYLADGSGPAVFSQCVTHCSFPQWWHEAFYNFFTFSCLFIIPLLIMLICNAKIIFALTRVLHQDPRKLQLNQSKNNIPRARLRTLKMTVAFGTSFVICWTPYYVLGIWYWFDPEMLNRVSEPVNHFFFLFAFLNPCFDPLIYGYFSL
Method: The peptides according to the general formula (IIa) exert an agonist activity upon the LH-RH receptors in vivo, resulting in the stimulation of LH secretion by the pituitary, which, in males, stimulates the secretion of testosterone by the testis.
Two hours later, blood samples were drawn for total plasma testosterone determination by direct radioimmunoassay (Immunotech).
At this intermediate dose of 10 ng/kg, several examples with Npg^7 or Ada^7 in place of Leu^7 according to the invention were screened for agonistic activity (Tables 2 and 3). When available from Bachem (France) or Sigma (France), the corresponding standard agonist with Leu^7 was tested for comparison.

Compound | agonistic potency in words (LH-RH receptors; 10 ng/kg s.c.) | Total plasma testosterone (LH-RH receptors; Table 2, vehicle 2.7 ± 0.3) [nmol/L] | further results
Goserelin (peptide) |  |  | pKi [1]: 8.58 -log Ki
CC(C)(C)C[C@H](NC(=O)CNC(=O)[C@H](Cc1ccc(O)cc1)NC(=O)[C@H](CO)NC(=O)[C@H](Cc1c[nH]c2ccccc12)NC(=O)[C@H](Cc1c[nH]cn1)NC(=O)[C@@H]1CCC(=O)N1)C(=O)N[C@@H](CCCNC(=N)N)C(=O)N1CCC[C@H]1C(=O)NCC(N)=O [Example 1, pGlu-His-Trp-Ser-Tyr-Gly-Npg-Arg-Pro-Gly-NH2] |  |  | activity in stimulating testosterone secretion relative to LH-RH (LH-RH receptors; FIG. 1, various doses s.c., 8 animals per point): a little more than twice as active as LH-RH
CC(C)(C)C[C@H](NC(=O)[C@@H](Cc1ccncc1)NC(=O)[C@H](Cc1ccc(O)cc1)NC(=O)[C@H](CO)NC(=O)[C@H](Cc1c[nH]c2ccccc12)NC(=O)[C@H](Cc1c[nH]cn1)NC(=O)[C@@H]1CCC(=O)N1)C(=O)N[C@@H](CCCNC(=N)N)C(=O)N1CCC[C@H]1C(=O)NCC(N)=O [Example 21, pGlu-His-Trp-Ser-Tyr-D-4Pal-Npg-Arg-Pro-Gly-NH2] ([pGlu]HWSY[d4Pal][tBuAla]RPG-NH2) | range of potency similar to that of leuprorelin or tryptorelin |  | Total plasma testosterone (LH-RH receptors; Table 3, vehicle 4.3 ± 1.2): 32.4 ± 7.0 nmol/L
pGlu-His-Trp-Ser-Tyr-D-Phe-Ada-Arg-Pro-NEt [Example 27] | the Ada^7 replacement was more favorable than Npg^7 | 28.0 ± 4.1 | 
CCNC(=O)[C@@H]1CCCN1C(=O)[C@H](CCCNC(=N)N)NC(=O)[C@H](CC(C)C)NC(=O)[C@@H](Cc1ccccc1)NC(=O)[C@H](Cc1ccc(O)cc1)NC(=O)[C@H](CO)NC(=O)[C@H](Cc1c[nH]c2ccccc12)NC(=O)[C@H](Cc1c[nH]cn1)NC(=O)[C@@H]1CCC(=O)N1 [[D-Phe^6, Pro^9NEt]-LH-RH, reference compound] |  | 16.7 ± 4.3 | 
AcD-Nal-D-pClPhe-D-Pal-Ser-Tyr-D-HCit-Npg-IprLys-Pro-D-Ala-NH2 (peptide) |  |  | pKi [1]: 10.1 -log Ki
CC(C)(C)C[C@H](NC(=O)[C@@H](Cc1c[nH]c2ccccc12)NC(=O)[C@H](Cc1ccc(O)cc1)NC(=O)[C@H](CO)NC(=O)[C@H](Cc1c[nH]c2ccccc12)NC(=O)[C@H](Cc1c[nH]cn1)NC(=O)[C@@H]1CCC(=O)N1)C(=O)N[C@@H](CCCNC(=N)N)C(=O)N1CCC[C@H]1C(=O)NCC(N)=O [Example 11, pGlu-His-Trp-Ser-Tyr-D-Trp-Npg-Arg-Pro-Gly-NH2] ([pGlu]HWSY[dW][tBuAla]RPG-NH2) | Npg^7 led to more potent agonists than Ada^7 | 30.8 ± 3.5 | activity in stimulating testosterone secretion relative to the Leu^7 counterpart (LH-RH receptors; 10 ng/kg s.c.): a little more than twice as active
CC(C)C[C@H](NC(=O)[C@@H](C)NC(=O)[C@H](Cc1ccc(O)cc1)NC(=O)[C@H](CO)NC(=O)[C@H](Cc1c[nH]c2ccccc12)NC(=O)[C@H](Cc1c[nH]cn1)NC(=O)[C@@H]1CCC(=O)N1)C(=O)N[C@@H](CCCNC(=N)N)C(=O)N1CCC[C@H]1C(=O)NCC(N)=O [[D-Ala^6]-LH-RH, reference compound] |  | 6.4 ± 1.9 | 
CCNC(=O)[C@@H]1CCCN1C(=O)[C@H](CCCNC(=N)N)NC(=O)[C@H](CC(C)(C)C)NC(=O)[C@@H](CC(C)C)NC(=O)[C@H](Cc1ccc(O)cc1)NC(=O)[C@H](CO)NC(=O)[C@H](Cc1csc2ccccc12)NC(=O)[C@H](Cc1c[nH]cn1)NC(=O)[C@@H]1CCC(=O)N1 [Example 26, pGlu-His-Bal-Ser-Tyr-D-Leu-Npg-Arg-Pro-NEt] ([pGlu]H[Bta]SY[dL][tBuAla]RP-NHEt) |  |  | Total plasma testosterone (LH-RH receptors; Table 3, vehicle 4.3 ± 1.2): 12.2 ± 2.7 nmol/L
CC(C)(C)C[C@H](NC(=O)[C@@H](Cc1cccnc1)NC(=O)[C@H](Cc1ccc(O)cc1)NC(=O)[C@H](CO)NC(=O)[C@H](Cc1c[nH]c2ccccc12)NC(=O)[C@H](Cc1c[nH]cn1)NC(=O)[C@@H]1CCC(=O)N1)C(=O)N[C@@H](CCCNC(=N)N)C(=O)N1CCC[C@H]1C(=O)NCC(N)=O [Example 20, pGlu-His-Trp-Ser-Tyr-D-Pal-Npg-Arg-Pro-Gly-NH2] ([pGlu]HWSY[d3Pal][tBuAla]RPG-NH2) | range of potency similar to that of leuprorelin or tryptorelin |  | Total plasma testosterone (LH-RH receptors; Table 3, vehicle 4.3 ± 1.2): 24.9 ± 5.0 nmol/L
pGlu-His-Trp-Ser-Tyr-D-Trp-Ada-Arg-Pro-Gly-NH2 [Example 30] |  | 24.8 ± 4.1 | 
CCNC(=O)[C@@H]1CCCN1C(=O)[C@H](CCCNC(=N)N)NC(=O)[C@H](CC(C)(C)C)NC(=O)[C@@H](CC(C)C)NC(=O)[C@H](Cc1ccc(O)cc1)NC(=O)[C@H](CO)NC(=O)[C@H](Cc1ccc2ccccc2c1)NC(=O)[C@H](Cc1c[nH]cn1)NC(=O)[C@@H]1CCC(=O)N1 [Example 25, pGlu-His-2Nal-Ser-Tyr-D-Leu-Npg-Arg-Pro-NEt] ([pGlu]H[2Nal]SY[dL][tBuAla]RP-NHEt) | range of potency similar to that of leuprorelin or tryptorelin |  | Total plasma testosterone (LH-RH receptors; Table 3, vehicle 4.3 ± 1.2): 27.3 ± 6.9 nmol/L
CCNC(=O)[C@@H]1CCCN1C(=O)[C@H](CCCNC(=N)N)NC(=O)[C@H](CC(C)(C)C)NC(=O)[C@@H](CC(C)C)NC(=O)[C@H](Cc1ccc(O)cc1)NC(=O)[C@H](CO)NC(=O)[C@H](Cc1cccc2ccccc12)NC(=O)[C@H](Cc1c[nH]cn1)NC(=O)[C@@H]1CCC(=O)N1 [Example 24, pGlu-His-1Nal-Ser-Tyr-D-Leu-Npg-Arg-Pro-NEt] ([pGlu]H[1Nal]SY[dL][tBuAla]RP-NHEt) |  |  | Total plasma testosterone (LH-RH receptors; Table 3, vehicle 4.3 ± 1.2): 14.3 ± 4.3 nmol/L
pGlu-His-Trp-Ser-Tyr-D-Ala-Ada-Arg-Pro-NEt [Example 28] | the Ada^7 replacement was more favorable than Npg^7; also recorded: more potent LH-RH agonists than current therapeutic LH-RH analogues | 44.9 ± 6.0 | 
CCNC(=O)[C@@H]1CCCN1C(=O)[C@H](CCCNC(=N)N)NC(=O)[C@H](CC(C)C)NC(=O)[C@@H](C)NC(=O)[C@H](Cc1ccc(O)cc1)NC(=O)[C@H](CO)NC(=O)[C@H](Cc1c[nH]c2ccccc12)NC(=O)[C@H](Cc1c[nH]cn1)NC(=O)[C@@H]1CCC(=O)N1 [[D-Ala^6, Pro^9NEt]-LH-RH, reference compound] |  | 30.6 ± 7.2 | 
CCNC(=O)[C@@H]1CCCN1C(=O)[C@H](CCCN=C(N)N)NC(=O)[C@H](CC(C)C)NC(=O)[C@@H](Cc1c[nH]c2ccccc12)NC(=O)[C@H](Cc1ccc(O)cc1)NC(=O)[C@H](CO)NC(=O)[C@H](Cc1c[nH]c2ccccc12)NC(=O)[C@H](Cc1cnc[nH]1)NC(=O)[C@@H]1CCC(=O)N1 [Deslorelin, reference compound] |  | 11.8 ± 3.5 | 
CC(C)C[C@H](NC(=O)[C@@H](Cc1c[nH]c2ccccc12)NC(=O)[C@H](Cc1ccc(O)cc1)NC(=O)[C@H](CO)NC(=O)[C@H](Cc1c[nH]c2ccccc12)NC(=O)[C@H](Cc1c[nH]cn1)NC(=O)[C@@H]1CCC(=O)N1)C(=O)N[C@@H](CCCNC(=N)N)C(=O)N1CCC[C@H]1C(=O)NCC(N)=O [Tryptorelin, reference compound] |  | 20.3 ± 2.5 | 
CCNC(=O)[C@@H]1CCCN1C(=O)[C@H](CCCNC(=N)N)NC(=O)[C@H](CC(C)(C)C)N(C)C(=O)[C@@H](CC(C)C)NC(=O)[C@H](Cc1ccc(O)cc1)NC(=O)[C@H](CO)NC(=O)[C@H](Cc1c[nH]c2ccccc12)NC(=O)[C@H](Cc1c[nH]cn1)NC(=O)[C@@H]1CCC(=O)N1 [Example 23, pGlu-His-Trp-Ser-Tyr-D-Leu-MeNpg-Arg-Pro-NEt] | very strong agonistic activity; also recorded: more potent LH-RH agonists than current therapeutic LH-RH analogues |  | Total plasma testosterone (LH-RH receptors; Table 3, vehicle 4.3 ± 1.2): 49.4 ± 4.6 nmol/L
CCNC(=O)[C@@H]1CCCN1C(=O)[C@H](CCCNC(=N)N)NC(=O)[C@H](CC(C)C)NC(=O)[C@@H](CC(C)C)NC(=O)[C@H](Cc1ccc(O)cc1)NC(=O)[C@H](CO)NC(=O)[C@H](Cc1c[nH]c2ccccc12)NC(=O)[C@H](Cc1c[nH]cn1)NC(=O)[C@@H]1CCC(=O)N1 [Leuprorelin, reference compound] |  | 33.5 ± 3.5 | 
pGlu-His-Trp-Ser-Tyr-D-Leu-Ada-Arg-Pro-NEt [Example 29] |  | 36.2 ± 4.5 | 
CC(C)C[C@@H](NC(=O)[C@H](Cc1ccc(O)cc1)NC(=O)[C@H](CO)NC(=O)[C@H](Cc1c[nH]c2ccccc12)NC(=O)[C@H](Cc1c[nH]cn1)NC(=O)[C@@H]1CCC(=O)N1)C(=O)N[C@@H](CC(C)(C)C)C(=O)N[C@@H](CCCNC(=N)N)C(=O)N1CCC[C@H]1C(=O)NCC(N)=O [Example 5, pGlu-His-Trp-Ser-Tyr-D-Leu-Npg-Arg-Pro-Gly-NH2] ([pGlu]HWSY[dL][tBuAla]RPG-NH2) | range of potency similar to that of leuprorelin or tryptorelin | 21.2 ± 6.6 | 
